Experimental data published in US8648200B2, “Imidazole derivatives useful for the treatment of arthritis” (Eli Lilly and Company, priority 2011, dated 2014).

Legend:
[1] = tested on: Dunkin Hartley guinea pigs; experiment: Monoiodoacetate (MIA) In Vivo Model, incapacitance testing; parameters: species or system guinea pig; settings: for Mean % Reduction of Pain Compared to Vehicle / Mean Difference in Hind Paw Weight Bearing (Saline knee-MIA knee): four hours post-dose; for Mean Difference in Hind Paw Weight Bearing (Saline knee-MIA knee): 9 days after MIA, Mean ± SEM, n=6; for pain versus vehicle (statistical comparison): Example 1 both doses (10 and 50 mg/kg), diclofenac 30 mg/kg, p<0.05 by Dunnett's test
Description: Male Dunkin Hartley guinea pigs weighing approximately 200-250 grams at the time of MIA injection are used to measure pain in the MIA model. The guinea pigs are group housed in a child's wading pool and maintained in a constant temperature and on a 12 hour light/12 hour dark cycle. On the day before study, the guinea pigs are moved to standard caging with 2 animals per cage. Animals have free access to food and water at all times except during data collection. All experiments are carried out according to protocols approved by the Eli Lilly Institutional Animal Care and Use Committees.
In the standard MIA model the right knees of each guinea pig are injected with MIA (0.3 mg) in saline ([…]) and the left knees with saline (50 μl). Pain is measured at 9 days after MIA injection using incapacitance testing. Incapacitance testing measures the difference in hind paw weight bearing between the MIA and saline injected knees, and each value represents the average of 3 separate measurements each measured over 1 second.
For this study, guinea pigs, are dosed with either vehicle (10% Cremophor® EL (CAS 61791-12-6) in saline) or Example 1 (10 or 50 mg/kg). A fourth group of guinea pigs are also dosed with the nonsteroidal anti-inflammatory drug diclofenac (vehicle saline, 30 mg/kg), which acts as a positive control for the study, as it has previously shown efficacy in the model. All dosing is subcutaneous at a dose volume of 5 ml/kg and group size is n=6. Dose group is randomly assigned to each animal and dosing is staggered by 10 minutes for each guinea pig. Four hours post-dose, pain is measured using incapacitance testing. Results are reported in Table 13 as the mean difference in weight bearing between saline and MIA injected knees and statistical comparisons are made between vehicle treated and compound treated animals to assess the effect of the compound of Example 1 on knee pain in the model.
Data is evaluated by one way analysis of variance; p<0.05 by Dunnett's test for comparison to vehicle and a Bonferroni adjustment is used for comparison between groups.

PGE2 formation = experiment: Cell Based Assay for Measuring Eicosanoid Selectivity (A549, rhIL-1β induced PGE2); settings: Homo sapiens; A549 cells, rhIL-1β 0.1-0.2 ng/mL, approx. 18 hours; mean±standard deviation; n=4; read-out: IC50 inhibition of PGE2 formation
Description: (§1) Human epithelial lung carcinoma cell line A549 is obtained from ATCC (CCL-185) and is maintained in Kaighn's F12 (“F12K”)+10% fetal bovine serum, (FBS) (plating medium), and 5% CO2. The cells are passaged at 1:3 twice a week.
(§2) For this assay, cells are released from flasks by washing once with phosphate buffered saline (PBS), then once with Trypsin/EDTA. After 3-5 minutes at 37° C., the cells are suspended in 10 mL of plating medium, and centrifuged at 2,000 rpm at 25° C. for 5 minutes. The supernatant is aspirated, and the cell pellet is resuspended in 10 mL F12K. Cell number is determined by counting an aliquot of cells, which has been diluted in PBS and Trypan blue on a hemocytometer. Cells are plated at 40,000/well in 96 well Falcon plates 24 hours prior to treatment. […] The plates are incubated at room temperature for 30-45 minutes, and then read on a plate reader at A490 to determine viability. […]
(§3) The conditioned medium is assayed for levels of PGE2 and PGI2 by specific enzyme immune-assays (ETAs) according to the manufacturer's protocols (Cayman) Briefly, conditioned medium (1 μL) is added to each well of a 96 well plate coated with a capture antibody and containing ETA buffer (49 μL) supplied by the manufacturer. […] After approximately 45 minutes at room temperature on an orbital shaker at 100 rpm, the plates are read at A412 on a plate reader. […]

[2] = tested on: PGF2α and TXB2 production; experiment: Human Whole Blood Assay (LPS, PGF2α and TXB2); type: cell-based; settings: LPS 100 μg/mL, 20-24 hours
Description: Blood is collected from normal volunteer donors into sodium heparin vacutainer tubes. Donors have not taken NSAIDs, aspirin, Celebrex, or glucocorticoids within two weeks of the donation. All tubes/donor are pooled into 250 mL Corning conical centrifuge tubes and 436.5 μL/well is distributed into deep well polypropylene plates. Compounds are diluted in DMSO to 100× final and 4.5 μL/well in duplicate or triplicate is added to give 7 point curves. The blood is pretreated at 37° C., 5% CO2, in a humidified atmosphere, loosely covered with a silicone cap mat, for 30 minutes after which 9 μL/well of a solution of 5 mg/mL of lipopolysaccharide (LPS) (Sigma 0111:B4) in 1 mg/mL bovine serum albumin (BSA)/PBS is added to give a final LPS concentration of 100 μg/mL. The plates are incubated for 20-24 hours, loosely covered, at 37° C., 5% CO2, in a humidified atmosphere, on an orbital shaker at approximately 100 rpm. The plates are tightly sealed with silicone cap mats and are chilled on ice for approximately 1 hour. Then the plates are centrifuged at 1800×g, 10 minutes, 4° C., in an Eppendorf 5810R centrifuge. […] One hundred microliters is quantitatively transferred to Costar cluster tubes blocks and 400 μL/well of the methanol stop reagent and internal standards, d-4PGE2, d-4PGF2α, and d-4TX2β are added. […] The products were analyzed by LC/MS/MS.

Human mPGES-1 = target: T1, Human mPGES-1 (Homo sapiens, UniProt O14684); experiment: Human mPGES-1 Enzyme Inhibition Assay; type: biochemical; settings: microsomes from 293E cells, 1.69 μM PGH2; mean±standard deviation; n=10/22
T1 construct: host or cells: 293E cells (transient expression from pcDNA3.1); microsomes
T1 sequence (O14684 1-152): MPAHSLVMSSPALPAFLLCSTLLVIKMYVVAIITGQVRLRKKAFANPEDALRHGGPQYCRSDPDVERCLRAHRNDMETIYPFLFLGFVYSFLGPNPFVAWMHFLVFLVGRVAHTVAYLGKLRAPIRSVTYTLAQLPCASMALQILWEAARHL
Description: Human mPGES-1 (Invitrogen™ (Cat #97002RG, clone ID 6374722)) is subcloned into pcDNA3.1 and transiently expressed in 293E cells. […] Briefly, pellets are brought up in homogenization buffer (15 mM Tris-HCl, pH 8.0; 0.25 M sucrose; 0.1 mM EDTA; 1 mM glutathione) and sonicated 5×30 seconds on ice. Homogenate is centrifuged at 5000×g for 10 minutes at 4° C. The supernatant fraction is decanted; loaded into Beckman Quick-Seal® tubes; and centrifuged at 150,000×g for 90 minutes at 4° C. The supernatant fraction is discarded by decantation; and the pellets are resuspended in assay buffer (10 mM sodium phosphate (pH 7.0), 10% glycerol, and 2.5 mM glutathione. Complete Protease Inhibitor Cocktail (Roche)). Protein concentration is determined using the Pierce Coomassie Plus™ reagent.
For the enzyme assay, the microsomes are diluted into assay buffer and 7 μL/well is added to 384 well plates. Compound dilution plates (Nunc Cat #249944) are generated on a Multimek™, and 1 μL/well is added to the assay plates. Prostaglandin H2 (PGH2) is diluted into assay buffer immediately before use and 7 μL/well is added. Final concentrations are 4.4 μg/mL microsomes and 1.69 μM PGH2. After a 2.5 minute incubation at room temperature, 2.5 μL/well of 1 mg/mL of snCl2 in 0.5 N HCl is added to stop the reaction. […]

[3] = tested on: synthesis of other prostanoids; experiment: Cell Based Assay for Measuring Eicosanoid Selectivity (A549, other prostanoids, PGI2); parameters: species or system human; settings: A549 cells, rhIL-1β; PGI2 by enzyme immunoassay
Description: as §1, §2, §3

| Structure (SMILES) | Mean % Reduction of Pain Compared to Vehicle ([1]; 30 mg/kg subcutaneous) [%] | Mean Difference in Hind Paw Weight Bearing (Saline knee-MIA knee) ([1]; 30 mg/kg subcutaneous) [g] | pain versus vehicle (statistical comparison) [1] | Mean % Reduction of Pain Compared to Vehicle ([1]; 10 mg/kg subcutaneous) [%] | Mean Difference in Hind Paw Weight Bearing (Saline knee-MIA knee) ([1]; 10 mg/kg subcutaneous) [g] | Mean % Reduction of Pain Compared to Vehicle ([1]; 50 mg/kg subcutaneous) [%] | Mean Difference in Hind Paw Weight Bearing (Saline knee-MIA knee) ([1]; 50 mg/kg subcutaneous) [g] | 50 mg/kg group compared with the 10 mg/kg group and the diclofenac group ([1]; 50 mg/kg, Bonferroni adjustment for comparison between groups) | IC50 (PGE2 formation) [nM] | effect on PGF2α production [2] | effect on TXB2 production [2] | IC50 (Human mPGES-1) [nM] | effect on synthesis of other prostanoids [3] |
| --- | --- | --- | --- | --- | --- | --- | --- | --- | --- | --- | --- | --- | --- |
| O=C(O)Cc1ccccc1Nc1c(Cl)cccc1Cl [Diclofenac, diclofenac, reference compound] | 22 | 34.65 ± 1.14 | significantly reduce pain | – | – | – | – | – | – | – | – | – | – |
| Cc1nc(NC(=O)c2cc(CNC(=O)C(C)C)cnc2C(F)F)[nH]c1-c1ccc(C(F)(F)F)cc1 [Example 1, 2-(Difluoromethyl)-5-{[(2-methylpropanoyl)amino]methyl}-N-{4-methyl-5-[4-(trifluoromethyl)phenyl]-1H-imidazol-2-yl}pyridine-3-carboxamide] | – | – | significantly reduce pain | 15 | 37.53 ± 0.87 | 36 | 28.44 ± 0.66 | significantly different | 12.1 ± 6.1 | without inhibiting | without inhibiting | 0.944 ± 0.59 | without affecting the synthesis of other prostanoids |
